Data from article PMC9436819 (JACC: Basic to Translational Science, 2022).
Values joined by “and” are separate entries in the source; they are usually repeats but may differ in a detail not shown here. Equal entries are not always repeated.

Tested on: healthy adults
Assay: Echocardiography (core laboratory) pharmacodynamics, SAD cohorts
Assay type: in vivo, human
Procedure: For PD assessments of LVEF, echocardiograms for the SAD and MAD cohorts were interpreted by the echocardiography core laboratory and used for all data analysis and dose-level review decisions, and immediate local interpretation of the echocardiograms was performed for safety monitoring. […] Echocardiograms on day 3 (48 hours after dosing) were obtained only if the 24-hour LVEF had not returned to near or above baseline, as determined by the investigator. In the MAD cohorts, echocardiograms were obtained on day -1; predose on day 1; at 1.5 hours postdose on days 2, 4, and 9; and at 1.5, 24, and 72 hours postdose on day 14 (for the 5-mg and 10-mg cohorts) or on day 17 (for the 7.5-mg cohort). Echocardiograms were obtained 3 days after the last dose (on day 17 or 20) only if the participant’s prior LVEF was not near or above baseline, as determined by the investigator.
Using echocardiography instrumentation certified for clinical use, echocardiographic images were obtained from standard views based on American Society of Echocardiography recommendations for chamber quantification.[19] To obtain the LVEF, the endocardial borders of 3 different cardiac cycles were traced at both end diastole and end systole from the apical 4- and 2-chamber views and LV end-diastolic volume (LVEDV) and LV end-systolic volume (LVESV), calculated using the Simpson’s method of discs algorithm. Ejection fraction was calculated in the standard manner: LVEF = (LVEDV − LVESV)/LVEDV. The intraobserver variability (coefficient of variation) for LVEF was 8%.
All participants who received ≥1 dose of the study drug and had ≥1 predose and ≥1 postdose echocardiographic measurements were included in the PD analysis set. […] Descriptive statistics of the echocardiographic parameters were generated using SAS, version 9.3 or higher. Dose-response analysis was performed using analysis of covariance to identify the least-squares mean difference (aficamten minus placebo), as described in the Supplemental Appendix. Analyses of concentration “bin” and exposure-response were also performed using analysis of covariance, as described in the Supplemental Appendix. SAS PROC MIXED was used for all comparative analyses.
Statistical A nalysis of P harmacodynamic (PD) P aram eters
To analyze the impact of drug dose on echocardiographic parameters in the SAD and MAD
cohorts, an inferential analysis was conducted on t he PD analysis set using linear mixed models
for rep eated -measur es an alysis of covarian ce ( AN COVA). The A NCOVA used baseline valu e as
a covariate, included treatment, time-point, and time-point-by- treatment interaction as fixed
effects, and ch ange f rom baseline as the d ependent variable. Th e unstructur ed varian ce-
covarian ce structu re w as used, and the model acco unted for the time- point r epeated m easur es.
The ANCOVA analysis was conducted separately for each study part and f or each PD p aram eter .
The least-squares means, the difference in least squares means (active minus placebo), and the
associated 2-sided 95% CIs were presented for each comparison.
Concentration bin analysis
An additional inferential analysis was performed i n the SAD and MAD cohorts , to evaluate the
analysis set. A concentrat ion bin ANCOVA was conducted using linear mi xed models for
repeat ed-measures an aly ses with concentr ation bin group as a fix ed ef fect, baseline PD
parameters as a covari ate, change f rom baseline as the dependent v ariable, and a random
intercept to adjust for the repeat ed measures. The unstructured variance-co variance structur e was
used.Plasma concentr ations of aficamten wer e paired with coincident PD parameters. The
ANCOVA compared the change in PD parameters between each bin versus the pooled placebo
group. The least-squ ares means, the differen ce in l east squares m eans (bin group minus placebo),
and the associat ed 2-sided 95% CIs were pres ented for each comparison. The ANCOVA analysis

[1] = SAD 50 mg (n = 11), […] postdose

CCc1nc(-c2ccc3c(c2)CC[C@H]3NC(=O)c2cnn(C)c2)no1 [Aficamten]
Participants with absolute reduction in LVEF of ≥5% from baseline (SAD 1 mg): no participants
Participants with absolute reduction in LVEF of ≥5% from baseline (SAD 3 mg, 1 of 6): 17%
Participants with absolute reduction in LVEF of ≥5% from baseline (SAD 10 mg): no participants
Participants with absolute reduction in LVEF of ≥5% from baseline (SAD 25 mg): no participants
Participants with absolute reduction in LVEF of ≥10% (SAD 40 mg, 1 of 6): 17%
Participants with absolute reduction in LVEF of ≥5% from baseline (SAD 40 mg, 2 of 6): 33%
A (peak A wave velocity), mean [1]: 54.5 cm/s
A (peak A wave velocity), mean change from baseline [1]: 2.5 cm/s
E (peak E wave velocity), mean [1]: 64.0 cm/s
E (peak E wave velocity), mean change from baseline [1]: -2.7 cm/s
Heart rate, mean [1]: 62.3 bpm
Heart rate, mean change from baseline [1]: 0.5 bpm
IVCT, mean [1]: 42.6 ms
IVCT, mean change from baseline [1]: 0.4 ms
IVRT, mean [1]: 69.3 ms
IVRT, mean change from baseline [1]: 0.5 ms
LAV, mean [1]: 35.7 mL
LAV, mean change from baseline [1]: 0.0 mL
LV CO, mean [1]: 3240 mL
LV CO, mean change from baseline [1]: -346 mL
LV EDV, mean [1]: 99.8 mL
LV EDV, mean change from baseline [1]: 6.6 mL
LV ESV, mean [1]: 39.7 mL
LV ESV, mean change from baseline [1]: 8.1 mL
LV ET, mean [1]: 328 ms
LV SV, mean [1]: 52.6 mL
LV SV, mean change from baseline [1]: -6.2 mL
LVEF, mean [1]: 60.5%
LVEF, mean change from baseline [1]: -5.8%
e' lateral, mean [1]: 10.2 cm/s
e' lateral, mean change from baseline [1]: -1.3 cm/s
Participants with reduction in LVEF to <50% (SAD 50 mg, 2 of 11, core laboratory): 18%
Participants with absolute reduction in LVEF of ≥5% from baseline (SAD 50 mg, 7 of 11): 64%
Mean maximum reduction in LVEF from baseline (SAD 50 mg, […] postdose): 5.8%
Reduction in LVEF, placebo corrected least-squares mean difference (SAD 50 mg, […] postdose): 5.5%
LVEF of the individual participants with LVEF <50% (SAD 50 mg, per core laboratory assessment): 48.2% and 45.5%
Participants with absolute reduction in LVEF of ≥5% from baseline (SAD 75 mg, 1 of 1): 100%
Participants with reduction in LVEF to <50% (SAD 75 mg, 1 of 1, core laboratory): 100%
Participants with absolute reduction in LVEF of ≥10% (SAD 75 mg, 1 participant): 100%
LVEF of the participant (only participant with LVEF <45%) (SAD 75 mg, core laboratory): < 45%
Relationship of LVEF to plasma concentration (SAD cohorts, highest concentration bin 122-524 ng/mL P < 0.001, concentration-slope analysis P = 0.003): statistically significant decrease
Time for reversal of decreases in LVEF to <50% (following single doses): ≤ 6 h
Time for LVEF to return to baseline (participants whose LVEFs fell below 50%): ≤ 24 h
Time after dosing at which LVEF <50% was noted (single 50 or 75 mg): approximately 1.5 hours
